The values that follow come from ChEMBL document CHEMBL1135699, “Designing non-peptide peptidomimetics in the 21st century: inhibitors targeting conformational ensembles” (J Med Chem, 2002).

One assay addresses T1, Rhizopuspepsin (Rhizopus microsporus var. chinensis, UniProt P06026).
T1 sequence (P06026 whole entry): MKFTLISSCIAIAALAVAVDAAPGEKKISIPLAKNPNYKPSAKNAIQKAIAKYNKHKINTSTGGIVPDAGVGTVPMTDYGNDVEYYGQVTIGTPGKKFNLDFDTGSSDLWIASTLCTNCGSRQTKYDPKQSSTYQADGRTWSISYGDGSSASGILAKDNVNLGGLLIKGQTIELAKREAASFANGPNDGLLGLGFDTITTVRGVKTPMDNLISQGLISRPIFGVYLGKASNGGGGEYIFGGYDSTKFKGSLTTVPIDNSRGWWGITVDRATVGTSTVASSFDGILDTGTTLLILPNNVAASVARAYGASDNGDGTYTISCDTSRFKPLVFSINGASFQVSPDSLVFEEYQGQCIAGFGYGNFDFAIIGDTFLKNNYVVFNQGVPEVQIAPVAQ
As to the kind of experiment: Inhibitory concentration against Rhizopus chinensis pepsin. The format is functional.

Assay [1] concerns the target Pepsin A (Homo sapiens, UniProt P0DJD9). As to the kind of experiment: Inhibition of pepsin.
For assay [2], the target named is Pepsin A (Sus scrofa, UniProt P00791). As to the kind of experiment: Inhibitory concentration against porcine pepsin.

Non-standard residues stand in square brackets, D forms with d. Residues, ends and D or L forms follow the SMILES beside them. *: point of attachment. Sta = CC(C)C[C@H](N)[C@@H](O)CC(=O)O; NHIsopentyl = CC(C)CCN*; X1 = CC(C)CCOC(=O)*

Pepsin A (Homo sapiens, UniProt P0DJD9), sequence (P0DJD9 whole entry): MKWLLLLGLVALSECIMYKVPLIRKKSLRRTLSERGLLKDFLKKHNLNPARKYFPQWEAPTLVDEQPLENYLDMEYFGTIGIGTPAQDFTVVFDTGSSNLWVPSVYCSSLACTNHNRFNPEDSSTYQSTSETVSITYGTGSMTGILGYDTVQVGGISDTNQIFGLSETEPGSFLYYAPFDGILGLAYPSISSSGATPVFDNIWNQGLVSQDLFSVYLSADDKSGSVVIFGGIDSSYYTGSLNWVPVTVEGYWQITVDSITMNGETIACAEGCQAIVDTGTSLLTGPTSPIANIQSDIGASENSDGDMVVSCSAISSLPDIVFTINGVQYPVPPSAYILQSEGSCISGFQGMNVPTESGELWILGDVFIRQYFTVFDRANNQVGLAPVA
Pepsin A (Sus scrofa, UniProt P00791), sequence (P00791 whole entry): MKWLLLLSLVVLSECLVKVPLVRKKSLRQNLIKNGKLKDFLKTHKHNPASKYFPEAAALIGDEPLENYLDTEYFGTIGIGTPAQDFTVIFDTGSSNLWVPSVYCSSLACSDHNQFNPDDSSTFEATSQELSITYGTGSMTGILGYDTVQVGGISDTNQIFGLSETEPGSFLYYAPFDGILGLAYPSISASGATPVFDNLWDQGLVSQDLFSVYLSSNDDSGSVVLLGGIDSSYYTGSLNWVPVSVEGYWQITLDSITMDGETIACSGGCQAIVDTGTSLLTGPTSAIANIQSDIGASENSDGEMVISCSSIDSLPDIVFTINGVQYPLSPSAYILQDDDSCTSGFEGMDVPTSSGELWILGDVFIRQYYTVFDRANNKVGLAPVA

Broadly, the IC50 is the concentration needed to halve the response being measured. A lower IC50 goes with inhibition by little substance. In the case of `O=C(COc1ccc([C@H]2CCNC[C@@H]2OCc2ccc(Br)cc2)cc1)c1ccc2ccccc2c1`, at Rhizopuspepsin, the IC50 came out at 2000 nM. By Ki is commonly meant a dissociation constant, usually derived from enzyme kinetics or from competition with a known ligand. Lower therefore signals higher affinity. For the molecule `CC(C)CCNC(=O)[C@H](C)NC(=O)C[C@](C)(O)[C@H](CC(C)C)NC(=O)[C@@H](NC(=O)[C@@H](NC(=O)OCCC(C)C)C(C)C)C(C)C`, the Ki at Pepsin A [1] came out at 1200 nM. Still for that read-out and setting: for `CC(C)CCNC(=O)[C@H](C)NC(=O)C[C@@](C)(O)[C@H](CC(C)C)NC(=O)[C@@H](NC(=O)[C@@H](NC(=O)OCCC(C)C)C(C)C)C(C)C` the value was 1.5 nM. Consider `Brc1ccc(CO[C@H]2CNCC[C@@H]2c2ccccc2)cc1`, for which the IC50 against Pepsin A [2] was 200 nM. `CC(C)CCNC(=O)[C@H](C)NC(=O)C[C@H](O)[C@H](CC(C)C)NC(=O)[C@@H](NC(=O)[C@@H](NC(=O)OCCC(C)C)C(C)C)C(C)C` (X1-VV[Sta]A-NHIsopentyl) returned an inhibition constant (Ki) on Pepsin A [1] of 0.1 nM.
